# Reference: ChEMBL document CHEMBL1201862, “PubChem BioAssay data set” (2004)
# Active and inactive are the calls of the source. Cut-off read from the data, not from the text of the source, for most assays here: actives have a measured EC50 and inactives only a lower limit.
# Assays:
# [1] = molecular target: T1, Heat shock factor protein 1 (Mus musculus, UniProt P38532); experiment: HSF1 potentiators in luciferase reporter cells, confirmation, cell-based, NIH3T3, luminescence, dose retest (AID 435004); format: functional;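 note: stress induced by proteasome inhibitor MG132 added 30 min after compound; luciferase reporter driven by HSF1 response element in NIH3T3 cells; actives raise luminescence as potentiators of the MG132 stress response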
# T1 sequence (P38532 whole entry): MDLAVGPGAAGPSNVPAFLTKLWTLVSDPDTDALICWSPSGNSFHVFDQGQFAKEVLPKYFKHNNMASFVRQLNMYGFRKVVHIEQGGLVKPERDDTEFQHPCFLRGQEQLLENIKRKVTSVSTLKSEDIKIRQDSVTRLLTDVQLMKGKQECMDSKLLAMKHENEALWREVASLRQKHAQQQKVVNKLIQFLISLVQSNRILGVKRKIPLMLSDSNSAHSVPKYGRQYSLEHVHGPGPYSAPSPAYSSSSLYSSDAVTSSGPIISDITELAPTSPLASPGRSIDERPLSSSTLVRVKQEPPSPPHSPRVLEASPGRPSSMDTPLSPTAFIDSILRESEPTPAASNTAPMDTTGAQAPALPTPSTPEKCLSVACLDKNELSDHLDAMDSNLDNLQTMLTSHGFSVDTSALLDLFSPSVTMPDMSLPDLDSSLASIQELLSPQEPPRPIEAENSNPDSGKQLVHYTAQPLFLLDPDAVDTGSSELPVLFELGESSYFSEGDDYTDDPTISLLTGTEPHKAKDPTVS
# [2] = microbe, parasite or virus in culture; format: functional; conditions: Mycobacterium tuberculosis
# [3] = growth suppression of PTEN-null colon cells, dose response, cell-based, HCT116 PTEN knockout (AID 1047); format: functional;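 note: HCT116 colon tumor cells with PTEN knocked out; cells exposed to compound for 60 hours before readout; potency for loss of cell viability measured by luminescence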
# [4] = growth suppression of beta-catenin-knockout colon cells, dose response, cell-based, HCT116, human colon tumor (AID 1045); format: functional;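 note: HCT116 colon tumor cells with beta catenin knocked out; cells exposed to compound for 60 hours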
# [5] = Luminescence Cell-Based Dose Retest to Confirm Inhibitors of Cancer Stem Cells. [Related pubchem assays (depositor defined):AID2717, AID2721]; format: functional; conditions: Homo sapiens
# Protein skinhead-1 = molecular target: T2, Protein skinhead-1 (Caenorhabditis elegans, UniProt P34707); format: functional
# T2 sequence (P34707 whole entry): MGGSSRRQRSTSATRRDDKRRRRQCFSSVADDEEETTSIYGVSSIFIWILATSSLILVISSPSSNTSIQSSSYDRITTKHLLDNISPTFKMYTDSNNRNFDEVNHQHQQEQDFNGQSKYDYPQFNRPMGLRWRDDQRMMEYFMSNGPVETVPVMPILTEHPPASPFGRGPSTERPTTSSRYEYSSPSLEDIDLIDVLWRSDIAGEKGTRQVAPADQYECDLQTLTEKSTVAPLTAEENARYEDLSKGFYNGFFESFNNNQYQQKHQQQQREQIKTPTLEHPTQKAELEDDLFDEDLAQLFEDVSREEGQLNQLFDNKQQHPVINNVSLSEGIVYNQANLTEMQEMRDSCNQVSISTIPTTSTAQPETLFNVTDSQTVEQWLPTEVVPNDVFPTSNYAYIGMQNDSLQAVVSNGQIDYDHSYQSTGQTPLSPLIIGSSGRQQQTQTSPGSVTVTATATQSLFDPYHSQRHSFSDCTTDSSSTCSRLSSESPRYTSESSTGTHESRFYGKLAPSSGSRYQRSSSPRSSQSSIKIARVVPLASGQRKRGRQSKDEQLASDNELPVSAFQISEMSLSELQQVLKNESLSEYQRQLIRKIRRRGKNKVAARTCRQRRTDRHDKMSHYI
# [6] = molecular target: T1, Heat shock factor protein 1; experiment: inhibition of MG132-induced HSE-luciferase signal, confirmation, cell-based, NIH3T3, luminescence, dose retest (AID 2382); format: functional;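 note: NIH3T3 fibroblasts with HSF1-driven luciferase reporter stressed by proteasome inhibitor MG132; luminescence from HSF1-driven luciferase expression after 8 hours of MG132 stress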
# [7] = Luminescence Cell-Based Dose Confirmation HTS to Identify Activators of 5'UTR Stem-Loop Driven Alpha-Synuclein mRNA Translation in H4 Neuroglioblastoma Cells. [Related pubchem assays: 1829 (Project Summary), 1814 (Primary HTS)]; format: functional
# [8] = Luminescence Cell-Based Dose Response HTS to Identify Activators of Luciferase Translation or Activity in H4 […] Cells. [Related pubchem assays: 1829 (Project Summary), 1814 (Primary HTS)]; format: functional
# H4 = experiment: Luminescence Cell-Based Dose Response HTS to Identify Activators of 5'UTR Stem-Loop Driven Prion Protein mRNA Translation in H4 Neuroglioblastoma Cells. [Related pubchem assays: 1829 (Project Summary), 1814 (Primary HTS)]; format: functional; conditions: Homo sapiens
# INS1 = experiment: beta cell apoptosis inhibitors, cytokine rescue, dose response, luminescence, retest (AID 449756); format: functional, cell-based; conditions: Rattus norvegicus;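 note: cell death triggered by IL-1 beta plus TNF-alpha plus IFN-gamma mixture; protective hits raise ATP signal compared with cytokine alone wells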
# [9] = inhibitors of intracellular T. cruzi replication, confirmation, NIH3T3 host cells, beta-gal luminescence (AID 2044); format: functional, cell-based;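 note: intracellular parasites grown in NIH/3T3 mouse fibroblasts as host cells; luminescent beta-galactosidase reporter signal from transgenic T. cruzi replicating inside host cells; inhibitors lower the luminescence signal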
# [10] = cytotoxicity toward NIH3T3 fibroblasts, dose response, counter-screen, cell-based, ATP luminescence, mouse fibroblasts (AID 2010); format: functional;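 note: cells exposed to compound for about 90 hours before reading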
# [11] = inhibitors of firefly luciferase expression or activity, dose response, H4 neuroglioma cells, luminescence (AID 1990); format: functional, cell-based
# [12] = Luminescence Cell-Based Dose Response HTS to Identify Inhibitors of 5'UTR Stem-Loop Driven Prion Protein mRNA Translation in H4 Neuroglioblastoma Cells. [Related pubchem assays: 1827 (Project Summary), 1813 (Primary HTS)]; format: functional
# [13] = inhibitors of SNCA 5'UTR-driven reporter translation, confirmation, H4 neuroglioma cells, luminescence (AID 1988); format: functional, cell-based
# [14] = molecular target: T3, Corticotropin-releasing factor receptor 2/Corticotropin-releasing factor-binding protein (Homo sapiens, UniProt P24387+Q13324); experiment: Dose Response confirmation of uHTS hits for small molecule antagonists of the CRF-binding protein and CRF-R2 receptor complex.; format: functional; conditions: read-out: IC50_Mean
# T3 sequence (Q13324 whole entry): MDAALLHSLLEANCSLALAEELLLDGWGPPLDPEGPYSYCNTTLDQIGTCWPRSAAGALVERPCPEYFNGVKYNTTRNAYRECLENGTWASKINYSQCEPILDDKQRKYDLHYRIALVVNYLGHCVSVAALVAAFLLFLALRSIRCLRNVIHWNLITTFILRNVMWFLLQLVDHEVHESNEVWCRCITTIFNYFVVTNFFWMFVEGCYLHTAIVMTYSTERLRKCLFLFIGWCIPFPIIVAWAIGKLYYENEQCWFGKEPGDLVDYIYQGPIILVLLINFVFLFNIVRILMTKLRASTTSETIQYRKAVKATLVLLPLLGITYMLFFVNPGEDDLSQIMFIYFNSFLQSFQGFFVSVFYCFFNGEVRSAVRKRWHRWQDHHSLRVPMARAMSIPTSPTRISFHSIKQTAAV
# T3 sequence (P24387 whole entry): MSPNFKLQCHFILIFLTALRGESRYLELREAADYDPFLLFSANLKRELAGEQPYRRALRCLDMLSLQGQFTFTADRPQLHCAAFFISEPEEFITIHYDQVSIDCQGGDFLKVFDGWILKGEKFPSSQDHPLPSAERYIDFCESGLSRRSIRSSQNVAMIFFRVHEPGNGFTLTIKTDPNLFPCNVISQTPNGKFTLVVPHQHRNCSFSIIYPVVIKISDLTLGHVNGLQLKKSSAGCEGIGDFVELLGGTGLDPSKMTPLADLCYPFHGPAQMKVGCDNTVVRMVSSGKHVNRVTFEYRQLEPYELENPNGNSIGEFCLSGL
# [15] = molecular target: T3, Corticotropin-releasing factor receptor 2/Corticotropin-releasing factor-binding protein; experiment: activators of CRF receptor 2 with binding protein – uHTS hits, confirmation (AID 602473); format: functional; conditions: read-out: EC50_Mean
# [16] = NIH-3T3 fibroblast cytotoxicity, dose response, cytotoxicity control, cell-based, fluorescence, Alamar Blue, secondary assay (AID 2327); format: functional;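 note: NIH-3T3 mouse fibroblasts cultured with fluconazole at 8 µg/mL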
# [17] = C. albicans growth with fluconazole, confirmation, fluorescence, retest (AID 2467); format: functional, cell-based
compound,measurement,setting,value
Cc1ccc(S(=O)(=O)N(CC(=O)NCc2ccco2)Cc2ccc(F)cc2)cc1,EC50,[1],> 260 µM (inactive)
O=C(NN=C1c2ccccc2-c2ccccc21)c1cccc(Br)c1,CC50,[2],15.1 µM (active)
same,EC50,[3],4.02 µM (active)
same,EC50,[4],4 µM (active)
CCn1c(C(=O)O)c(CC(=O)Nc2cccc(C(F)(F)F)c2)c2ccccc21,AC50,[5],15.3 µM (active)
Cc1ccc(NC(=O)CSc2nc(N)cc(O)n2)cc1S(=O)(=O)N1CCCCCC1,IC50,Protein skinhead-1,> 100 µM (inactive)
N#CCc1ccc(NC(=O)Nc2cccc3ccccc23)cc1,EC50,[6],> 195 µM (not active)
O=C(Nc1cccc(Cl)c1)c1cccc(Oc2ccc([N+](=O)[O-])cc2Cl)c1,EC50,[3],16.1 µM (active)
same,EC50,[4],17.1 µM (active)
Cc1cccc(C#Cc2ccccc2)n1,IC50,Protein skinhead-1,> 100 µM (inactive)
CC(C)=CCC/C(C)=C/CC(C)(C)CNCCN1CCNCC1,EC50,[7],> 120 µM (not active)
same,EC50,[8],> 120 µM (not active)
same,EC50,H4,> 120 µM (not active)
same,EC50,[3],6.28 µM (active)
same,EC50,[4],5.89 µM (active)
CCn1c(S(=O)(=O)O)nc2ccccc21,EC50,[6],> 195 µM (not active)
COc1ccc(C2c3c(oc4ccccc4c3=O)C(=O)N2c2ccccn2)cc1OC (centres undefined),EC50,[3],17.2 µM (active)
same,EC50,[4],20.7 µM (active)
CCOc1ccc(Nc2nc(Cc3nnc(SCC(=O)c4ccc(C)c(C)c4)o3)cs2)cc1,AC50,INS1,10.4 µM (active)
Cc1cc(OCCCCCNCCO)cc(C)c1Cl,EC50,[3],17.8 µM (active)
same,EC50,[4],17.6 µM (active)
Cc1oc(-c2ccccc2F)nc1CS(=O)(=O)CC(=O)NCCCN1CCN(C)CC1,EC50,[1],> 260 µM (inactive)
Cc1cccc(N/N=C/c2ccccc2O)c1,AC50,[5],6.21 µM (active)
O=[N+]([O-])c1ccc(COc2ccc(-c3[nH]ncc3-c3ccc(Cl)cc3)c(O)c2)cc1,CC50,[2],> 40 µM (active)
same,AC50,[5],4.02 µM (active)
Cc1c(C(=O)N(C)c2ccc(Cl)cc2)cnn1-c1ccccc1,IC50,Protein skinhead-1,> 100 µM (inactive)
CCN1CCN(c2ccc(NC(=O)CCc3c(C)nc4c(-c5ccc(F)cc5)c(C)nn4c3C)cc2)CC1,EC50,[9],1.48 µM (active)
same,EC50,[10],32.4 µM (active)
same,AC50,[5],2.15 µM (active)
COc1ccc(CSc2nc(N3CCOCC3)c3c(c2C#N)CC(C)(C)OC3)cc1,EC50,[11],18.5 µM (active)
same,EC50,[12],> 120 µM (not active)
same,EC50,[13],> 120 µM (not active)
same,EC50,[9],2.52 µM (active)
same,EC50,[10],> 60 µM (not active)
O=C(Nc1ccccc1O)C(c1ccccc1)c1ccccc1,AC50,INS1,2.92 µM (active)
Clc1ccc(C#Cc2cccnc2)cc1,EC50,[7],17.4 µM (active)
same,EC50,[8],24.1 µM (active)
same,EC50,H4,1.73 µM (active)
same,IC50,Protein skinhead-1,12.6 µM (active)
N#C/C(=C\c1ccco1)Sc1nc2ccccc2s1,EC50,[7],13.9 µM (active)
same,EC50,[8],11.8 µM (active)
same,EC50,H4,25.6 µM (active)
same,IC50,Protein skinhead-1,> 100 µM (inactive)
S=c1[nH]cc(-c2ccccc2)n1-c1ccccc1Cl,EC50,[1],> 260 µM (inactive)
Cc1ccc(C(=O)c2cc(C)sc2NC(=O)CN2CCN(C(=O)c3ccco3)CC2)cc1,CC50,[2],23.4 µM (active)
O=[N+]([O-])c1ccc(S(=O)(=O)N2CCSC2c2ccco2)cc1 (centres undefined),EC50,[1],> 260 µM (inactive)
N=C(NOC(=O)c1cccc(Cn2cc(C(F)(F)F)ccc2=O)c1)c1ccccc1,AC50,INS1,7.96 µM (active)
CCOC(=O)N1CCN(c2ncnc3c2cnn3-c2ccc(OC)cc2)CC1,IC50,Protein skinhead-1,> 100 µM (inactive)
Cc1c(Cl)ccc2c1NC(=O)C21NC(CCC(N)=O)[C@H]2C(=O)N(c3ccc(Cl)cc3)C(=O)[C@H]21 (some centres undefined),EC50,[1],> 260 µM (inactive)
same,IC50,[14],> 47.1 µM (inactive)
same,EC50,[15],> 53 µM (inactive)
CCOc1ccc(/C=N/NC(=O)C(C)N(c2ccc(OC)cc2)S(C)(=O)=O)cc1 (centres undefined),EC50,[1],> 260 µM (inactive)
CC(C)(C)NC1=NN=C(c2ccc(Cl)cc2)CS1,IC50,Protein skinhead-1,13.9 µM (active)
CCN1CCN(CCCNC(=O)c2ccc(/C=C3/Oc4ccccc4N(Cc4cccc(C)c4)C3=O)cc2)CC1,EC50,[11],> 120 µM (not active)
same,EC50,[12],> 120 µM (not active)
same,EC50,[13],13.9 µM (active)
same,CC50,[2],5.99 µM (active)
CS(=O)(=O)N(CC(=O)O)c1ccc(C23CC4CC(CC(C4)C2)C3)cc1,EC50,[6],> 195 µM (not active)
Cc1ccc(N(CC(=O)NCC2CCCO2)S(=O)(=O)c2ccc(Cl)cc2)cc1C (centres undefined),IC50,Protein skinhead-1,> 100 µM (inactive)
CC(OC(=O)c1oc2ccccc2c1COc1ccccc1)C(N)=O (centres undefined),EC50,[16],19.8 µM (inconclusive)
same,EC50,[11],26.7 µM (active)
same,EC50,[12],> 120 µM (not active)
same,EC50,[13],26.1 µM (active)
same,EC50,[17],> 38 µM (not active)
CC(=O)c1cn(CC(=O)Nc2ccccc2C)c2ccccc12,EC50,[6],> 195 µM (not active)
O=C(/C=C/c1ccncc1)c1ccc(NC(=O)c2ccccc2F)cc1,EC50,[3],1.12 µM (active)
same,EC50,[4],0.813 µM (active)
same,AC50,[5],5.5 µM (active)
Cc1ccc2c(CN3CCN(S(=O)(=O)/C=C/c4ccccc4)CC3)cc(=O)oc2c1,EC50,[1],> 260 µM (inactive)
CCc1ccccc1NC(=O)c1ccc(NS(C)(=O)=O)cc1,EC50,[6],> 195 µM (not active)
COc1cccc(/C=C/C(=O)NCc2ccc3c(c2)OCO3)c1,EC50,[6],> 195 µM (not active)
c1ccc(COc2ccccc2CNC2CCCC2)cc1,EC50,[1],> 260 µM (inactive)
COCCCNc1nc2nonc2nc1N1CCN(Cc2cccc(C)c2)CC1,EC50,[1],> 260 µM (inactive)
Cc1ccc(NC(=O)c2ccc(F)cc2F)cc1,IC50,Protein skinhead-1,79 µM (inactive)
